From patent publication US11000033B2, “Ketone or oxime compound, and herbicide” (NISSAN CHEMICAL CORPORATION, priority 2014, dated 2021) come the findings set out here.

Holding throughout (format): in vivo
Data set [1] concerns rapeseed. In words: Test Example 4: effect on crop by soil treatment (symbol g). The method in brief:
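Crop seeds, among them rice, wheat, beet and rapeseed, were sown in sterilized diluvial soil and covered with about 1.5 cm of soil. Boxes were kept in a greenhouse at 25° C. to 30° C. for plant growth.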

The test system of data set [2] is Galium spurium. In words: Test Example 5: herbicidal effect by foliage application, plastic box (symbol Q). The note with it: 320 g/ha, 3 weeks after application. An outline of the steps: (§1)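 Seeds were sown in sterilized diluvial soil, covered with about 1.5 cm of soil and grown 14 days in a greenhouse at 25° C. to 30° C. An emulsifiable formulation diluted in water to a set rate was sprayed over foliage, and injury was scored 3 weeks later.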

Data set [3] concerns Apera spica-venti. Description: Test Example 5: herbicidal effect by foliage application, plastic box (symbol L). The conditions noted are these: 320 g/ha, 3 weeks after application. An outline of the steps: as §1
Data set [4] relates to Monochoria vaginalis. Description: Test Example 1: herbicidal activity, application before weed generation in submerged conditions (symbol C). The conditions noted are these: application herbicide amount 320 g/ha. The method in brief: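 Compound emulsion was diluted to a set herbicide amount and applied to the water surface on the sowing day, into submerged (4 cm) alluvial-soil pots sown with mixed weed seeds and transplanted 2.5-leaf rice. Pots were held in a 25–30 °C greenhouse, and weeds were scored 0–5 by herbicidal ratio after 3 weeks.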

The test system of data set [5] is Abutilon theophrasti. Description: Test Example 4: herbicidal effect by soil treatment (symbol M). The method in brief:
(§2)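 Seeds were sown in sterilized diluvial soil, covered with about 1.5 cm of soil, and the soil surface was sprayed with a water-diluted emulsion of the compound at a predetermined rate. Plants grew in a greenhouse at 25° C. to 30° C.; effects were scored visually 3 weeks after application.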

The subject of data set [6] is Amaranthus retroflexus. Description: Test Example 4: herbicidal effect by soil treatment (symbol N). The method in brief: as §2
Data set [7] relates to Digitaria ciliaris. In words: Test Example 4: herbicidal effect by soil treatment (symbol F). An outline of the steps: as §2
Data set [8] has as its system corn. Description: Test Example 5: effect on crop by foliage application, plastic box (symbol c). The conditions noted are these: 320 g/ha, 3 weeks after application. An outline of the steps: (§3)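 Crop seed is sown alongside grass and broadleaf weed species in spots in sterilized diluvial soil, then covered to a depth of about 1.5 cm. Plants grow in a greenhouse kept at 25° C. to 30° C.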

Data set [9] deals with beet. Description: Test Example 5: effect on crop by foliage application, plastic box (symbol f). The conditions noted are these: 320 g/ha, 3 weeks after application. The method in brief: as §3
In data set [10] the test system is directly sowed rice plant. In words: Test Example 3: effect on crop by foliage application, Wagner pot (symbol b). The conditions noted are these: application herbicide amount 320 g/ha. The method in brief:
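Alluvial soil in a 1/10000-are Wagner pot was flooded to a water depth of 0.1–0.5 cm. Echinochloa crus-galli var. crus-galli, Leptochloa chinensis, Cyperus difformis and rice were sown into it and grown in a greenhouse at 25–30 °C.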

The subject of data set [11] is wheat. In words: Test Example 5: effect on crop by foliage application, plastic box (symbol e). The conditions noted are these: 320 g/ha, 3 weeks after application. An outline of the steps:
as §3

Data set [12] concerns Leptochloa chinensis. Description: Test Example 3: herbicidal effect by foliage application, Wagner pot (symbol D). The note with it: application herbicide amount 320 g/ha. An outline of the steps: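 Alluvial soil was flooded to a depth of 0.1–0.5 cm, seeded with the weeds and rice, and kept in a greenhouse at 25–30 °C. After 14 days of growth, the foliage received a small-sprayer application of emulsion diluted to the intended rate; injury was rated at 3 weeks.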

Data set [13] relates to transplanted rice plant. Description: Test Example 1: effect on crop, application before weed generation in submerged conditions (symbol a). The conditions noted are these: application herbicide amount 320 g/ha. The method in brief: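 Alluvial soil pots flooded to 4 cm water, sown with Echinochloa oryzacola, Scirpus juncoides and Monochoria vaginalis, then transplanted with 2.5 leaf stage rice seedlings; pre-emergence application. Greenhouse 25° C. to 30° C.; scored 0–5 by herbicidal ratio 3 weeks after application.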

Setting [14] is: application herbicide amount 320 g/ha.

On to `CON=C(C)CC1CC(OC(=O)C(CSC)=NOC)=C(c2c(C)cc(C)cc2C)C1=O` (centres unmarked) [1-098], for which, in data set [1] (320 g/ha), the “g: rapeseed, effect grade on crop” value is recorded as 5 (Herbicidal ratio of 90% or more (almost completely withered)). Besides, in data set [2], the “Q: Galium spurium, herbicidal effect (criteria 0-5)” value is given as 0 (Herbicidal ratio of 5% or lower (almost no effect)). The “L: Apera spica-venti, herbicidal effect (criteria 0-5)” value in data set [3] is recorded as 5 (Herbicidal ratio of 90% or more (almost completely withered)). In data set [4], the “Herbicidal effect grade, C: Monochoria vaginalis” value is 4 (Herbicidal ratio of 70% or higher and lower than 90%). In data set [5] (320 g/ha), the “M: Abutilon theophrasti, herbicidal effect grade” value is 4 (Herbicidal ratio of 70% or higher and lower than 90%). Also, the “N: Amaranthus retroflexus, herbicidal effect grade” value in [6] (320 g/ha) is 4 (Herbicidal ratio of 70% or higher and lower than 90%). Besides, the “F: Digitaria ciliaris, herbicidal effect grade” value in [7] (320 g/ha) is 5 (Herbicidal ratio of 90% or more (almost completely withered)). Also, the “c: corn, effect on crop (criteria 0-5)” value in [8] is recorded as 5 (Herbicidal ratio of 90% or more (almost completely withered)). Further, the “f: beet, effect on crop (criteria 0-5)” value in data set [9] was 1 (Herbicidal ratio of 5% or higher and lower than 20%). Besides, the “effect on crop b (directly sowed rice plant), grade 0-5” value in data set [10] is on record as 5 (Herbicidal ratio of 90% or more (almost completely withered)). Also, the “e: wheat, effect on crop (criteria 0-5)” value in data set [11] is 5 (Herbicidal ratio of 90% or more (almost completely withered)). Also, in data set [12], the “herbicidal effect on D (Leptochloa chinensis), grade 0-5” value was 5 (Herbicidal ratio of 90% or more (almost completely withered)). In addition, the “Effect grade on crop, a: transplanted rice plant” value in [13] was 5 (Herbicidal ratio of 90% or more (almost completely withered)).
On to `CC(CC1CC(OC(=O)COc2ccccc2)=C(c2c(C)cc(-n3cc(Cl)cn3)cc2C)C1=O)=NOCC(F)(F)F` (centres unmarked) [9-012], for which the “Effect on crop grade, g: rapeseed” value in data set [1] (setting [14]) is given as 0 (Herbicidal ratio of 5% or lower (almost no effect)). For the same molecule, the “Q: Galium spurium, herbicidal effect grade” value in data set [2] was 4 (Herbicidal ratio of 70% or higher and lower than 90%). Besides, the “L: Apera spica-venti, herbicidal effect grade” value in data set [3] is reported as 5 (Herbicidal ratio of 90% or more (almost completely withered)). For the same molecule, the “C (Monochoria vaginalis) herbicidal effect grade” value in data set [4] was 2 (Herbicidal ratio of 20% or higher and lower than 40%). In addition, the “Herbicidal effect grade, M: Abutilon theophrasti” value in data set [5] (setting [14]) is listed as 0 (Herbicidal ratio of 5% or lower (almost no effect)). Moreover, the “Herbicidal effect grade, N: Amaranthus retroflexus” value in data set [6] (setting [14]) is recorded as 0 (Herbicidal ratio of 5% or lower (almost no effect)). In addition, the “Herbicidal effect grade, F: Digitaria ciliaris” value in [7] (setting [14]) is 5 (Herbicidal ratio of 90% or more (almost completely withered)). Also, the “c: corn, effect on crop grade” value in [8] is listed as 5 (Herbicidal ratio of 90% or more (almost completely withered)). The “f: beet, effect on crop grade” value in data set [9] is 0 (Herbicidal ratio of 5% or lower (almost no effect)). In addition, the “b (directly sowed rice plant) effect on crop grade” value in data set [10] (Table 24) was 5 (Herbicidal ratio of 90% or more (almost completely withered)). In addition, the “e: wheat, effect on crop grade” value in [11] is 2 (Herbicidal ratio of 20% or higher and lower than 40%). Moreover, the “D (Leptochloa chinensis) herbicidal effect grade” value in [12] (Table 24) is 5 (Herbicidal ratio of 90% or more (almost completely withered)). Also, in [13], the “a (transplanted rice plant) effect on crop grade” value is recorded as 5 (Herbicidal ratio of 90% or more (almost completely withered)).
